The text below walks through data of PMC8954214, “Preparation, Identification, Molecular Docking Study and Protective Function on HUVECs of Novel ACE Inhibitory Peptides from Protein Hydrolysate of Skipjack Tuna Muscle” (Marine Drugs, 2022).

The target of data set [1] is T1, ACE (Oryctolagus cuniculus, UniProt P12822).
T1 construct: purchased Sigma-Aldrich (Shanghai) Trading Co., Ltd. A6778
T1 sequence (P12822 34-1310): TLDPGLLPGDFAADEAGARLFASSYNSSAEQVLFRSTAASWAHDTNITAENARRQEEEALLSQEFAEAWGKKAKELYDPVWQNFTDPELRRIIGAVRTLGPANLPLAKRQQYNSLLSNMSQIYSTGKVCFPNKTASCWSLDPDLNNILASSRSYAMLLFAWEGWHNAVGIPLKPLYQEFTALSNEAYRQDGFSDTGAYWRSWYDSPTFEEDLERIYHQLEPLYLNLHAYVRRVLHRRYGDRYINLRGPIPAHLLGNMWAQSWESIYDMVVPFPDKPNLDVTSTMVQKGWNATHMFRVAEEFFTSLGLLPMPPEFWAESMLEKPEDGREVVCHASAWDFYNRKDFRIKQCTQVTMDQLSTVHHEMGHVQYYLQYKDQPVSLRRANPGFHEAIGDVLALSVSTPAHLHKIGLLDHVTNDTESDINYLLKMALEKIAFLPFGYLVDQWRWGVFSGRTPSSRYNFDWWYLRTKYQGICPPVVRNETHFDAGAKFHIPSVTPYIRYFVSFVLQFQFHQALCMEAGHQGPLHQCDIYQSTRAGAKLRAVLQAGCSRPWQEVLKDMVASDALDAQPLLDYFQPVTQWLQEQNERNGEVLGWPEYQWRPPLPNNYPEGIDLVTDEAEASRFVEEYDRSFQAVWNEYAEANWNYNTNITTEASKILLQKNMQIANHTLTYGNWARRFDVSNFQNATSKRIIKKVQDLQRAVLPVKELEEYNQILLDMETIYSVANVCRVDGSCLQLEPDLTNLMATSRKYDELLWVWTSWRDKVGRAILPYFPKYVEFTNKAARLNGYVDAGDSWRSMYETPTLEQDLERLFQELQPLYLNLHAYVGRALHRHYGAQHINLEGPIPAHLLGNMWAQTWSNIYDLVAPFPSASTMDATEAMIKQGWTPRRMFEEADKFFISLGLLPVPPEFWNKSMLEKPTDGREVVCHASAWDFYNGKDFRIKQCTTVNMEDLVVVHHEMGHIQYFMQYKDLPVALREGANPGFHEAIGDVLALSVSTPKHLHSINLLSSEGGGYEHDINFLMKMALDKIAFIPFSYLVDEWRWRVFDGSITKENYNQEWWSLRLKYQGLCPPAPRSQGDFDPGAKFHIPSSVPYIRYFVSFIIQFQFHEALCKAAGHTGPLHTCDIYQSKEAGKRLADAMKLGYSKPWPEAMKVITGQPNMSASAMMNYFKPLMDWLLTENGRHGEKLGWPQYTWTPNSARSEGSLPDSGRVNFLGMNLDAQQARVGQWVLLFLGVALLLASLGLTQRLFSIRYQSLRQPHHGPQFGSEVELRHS
The note with it: from Ruditapes philippinarum; cited from earlier work. From the text:
Among these peptides, ACEi peptides represent a promising alternative to synthetic drugs to control hypertension. For instance, canary seed peptides (CSP) have great potential as anti-hypertensive and anti-obesity agents due to their inhibition activity on ACE and pancreatic lipase, and their non-competitive inhibitory activity was due to their destabilization of the transition state and Zn(II) coordination in ACE [13]. […] Auwal et al. illustrated that branched aliphatic or dicarboxylic amino acids (Val, Ala, Ile, and Leu) at the N-terminus could strengthen ACEi ability of peptides. Then, Val residue at the N-terminus of TMAP2 could improve its ACEi ability. […] Therefore, Ser residue, especially its hydroxyl group, should play a vital effect in the ACEi capability of ...

Data set [2] has as its system systolic blood pressure. The note with it: single blood pressure test; cited from earlier work. From the text:
(§1) Among these peptides, ACEi peptides represent a promising alternative to synthetic drugs to control hypertension. For instance, canary seed peptides (CSP) have great potential as anti-hypertensive and anti-obesity agents due to their inhibition activity on ACE and pancreatic lipase, and their non-competitive inhibitory activity was due to their destabilization of the transition state and Zn(II) coordination in ACE [13]. Noncompetitive ...

Data set [3] has as its system HUVECs. The note with it: cited from earlier work. The text has this: Among these peptides, ACEi peptides represent a promising alternative to synthetic drugs to control hypertension. For instance, canary seed peptides (CSP) have great potential as anti-hypertensive and anti-obesity agents due to their inhibition activity on ACE and pancreatic lipase, and their non-competitive inhibitory activity was due to their destabilization of the transition state and Zn(II) coordination in ACE [13]. Noncompetitive ... || NO can antagonize the vascular tone function of angiotensin II by down-regulating the synthesis of ang II type 1 receptor and ACE, which is further involved in regulating the peripheral and central function of the cardiovascular system and exerts vasoprotective effects. […] Therefore, the deficiency of NO will increase the risks of cardiovascular in pathologic situations, and improving endothelial NO production represents reasonable therapeutic strateg ...

The subject of data set [4] is ET-1. Conditions: cited from earlier work; for ET-1 generation: from R. philippinarum. The text has this:
Among these peptides, ACEi peptides represent a promising alternative to synthetic drugs to control hypertension. For instance, canary seed peptides (CSP) have great potential as anti-hypertensive and anti-obesity agents due to their inhibition activity on ACE and pancreatic lipase, and their non-competitive inhibitory activity was due to their destabilization of the transition state and Zn(II) coordination in ACE [13]. Noncompetitive ... || ET-1 is a known vasoconstriction factor similar to Ang II and is capable of inducing endothelial dysfunction related to atherosclerosis and hypertension.

In data set [5] the test system is HUVECs. Kind of data set: HUVEC viability, MTT assay. The data set is classed as cell-based, human. The note with it: 24 h, 100–400 μM. The method, then: After thawing, HUVECs were maintained in cultured flasks and cultured to confluence in DMEM containing 1% Penicillin-Streptomycin liquid, supplemented with 10% FBS. HUVECs received the culturing process at 37°C in a humidified 5% CO2 atmosphere.
The cell viability of TMAP1 and TMAP2 on HUVECs were assessed using the MTT assay on manufacturer’s instructions. In brief, cells were incubated in 96-well plates at density of 0.8 × 10^4 cells per well with 180 μL completed DMEM. Following a confluency of 50–60% in the 96-well plates, the cells were treated with 20 μL peptides under designed concentrations (100, 200, and 400 μM) and further cultured for 24 h at 37 °C. Subsequently, the cells were added to 20 μL MTT solution (5 mg/mL) and incubated for 4 h. Finally, DMSO was added into each well, and the absorbance (A) at 490 nm was determined. The cell viability was calculated as: Cell viability (%) = (Aexperiment group/Acontrol group) × 100(2)

The test system of data set [6] is HUVECs. Nature of the data set: NO production in HUVECs. The format is cell-based, human. The note with it: 24 h.
Data set [7] concerns HUVECs. Nature of the data set: ET-1 secretion of HUVECs. Conditions: 24 h. The data set is classed as cell-based, human. From the text:
Skipjack tuna (K. pelamis) muscle was provided by Ningbo Today Food Co., Ltd (China). Sephadex G-25 resins and NO assay kit (Nitrate reductase approach, A012-1) were purchased from Nanjing Jiancheng Bioengineering Institute (China). ET-1 ELISA Kit (HM10108) was purchased from Shanghai Qiaodu Biotechnology Co. Ltd. (China).Trypsase (≥20,000 U/g), pepsase (≥500,000 U/g), papain (≥400,000 U/g), ACE (A6778) and N-[3-(2-Furyl) acryloyl]-Phe-Gly-Gly (FAPGG, F713) were purchased from Sigma-Aldrich (Shanghai) Trading Co., Ltd. (China). […] ACEi Peptides of (TMAP1-TMAP6) with purity higher than 98% were synthesized in Shanghai Apeptide Co. Ltd. (China).
The NO and ET-1 contents of HUVECs were determined after a 24 h treatment of ACEi peptides. […] NO and ET-1 production in treated cells were measured by employing human NO and ET-1 assay kit as manufactures’ protocol, separately.

The subject of data set [8] is eNOS. The note with it: via Akt pathway; cited from earlier work.
Excerpt: as §1

In data set [9] the test system is ACE C-domain. Further details: method as in PMID 33340899. The note with it: docking; cited from earlier work.
Data set [10] has as its system ACE N-domain. More on the design: method as in PMID 33340899. The note with it: docking; cited from earlier work.

A word on the IC50: it is the concentration that gives 50% inhibition. “GRVSNCAA [ACEi peptide from Ruditapes philippinarum]”: in data set [1], the half-inhibitory concentration (IC50) was 57.9 µM and the “mode of ACE inhibition” value is recorded as “Noncompetitive”. In addition, the systolic blood pressure result in data set [2] is “lower systolic blood pressure”. Moreover, in data set [3], the “NO production of HUVEC” value was “increasing the NO production” and the NO secretion entry is listed as “promote NO secretion”. Moreover, in data set [4], the ET-1 production entry was “reduced ET-1 production” and the ET-1 generation result is on record as “significantly lessening ET-1 generation”.

As to H-VDRYF-OH [TMAP2, Val-Asp-Arg-Tyr-Phe], the cell toxicity entry in data set [5] is “did not induce significant cell toxicity”. Besides, in [6] (200 μM peptide with NE (0.5 μM), p < 0.001 vs NE), the “reversal of NE-reduced NO content” value was “partially offset”. In addition, the NO level in [6] (400 μM, control 34.41 ± 1.27, p < 0.001) amounted to 51.88 ± 2.16 μmol/gprot. In [6] (100, 200 and 400 μM, p < 0.001), the “NO level vs control group” value was “significantly increased”. Also, the “ET-1 secretion with NE” value in data set [7] (200 μM peptide with NE (0.5 μM), NE alone 140.23 ± 5.81, p < 0.01) is listed as 111.78 ± 3.06 pg/mL. In data set [7] (400 μM, control 118.68 ± 0.53), this substance showed an ET-1 secretion of 92.09 ± 4.58 pg/mL. In data set [7] (tested concentrations (100–400 μM), p < 0.001 or p < 0.01), the “ET-1 secretion vs control group” value is given as “decreased”.

With “KYIPIQ [ACEi peptide found in yak milk casein]”, the “expression of phosphorylated eNOS in HUVECs” value in data set [8] is “promote NO synthesis and the expression of phosphorylated endothelial NO synthase (eNOS) in HUVECs”. Moreover, the “NO synthesis in HUVECs” value in data set [3] (via Akt pathway) was “promote NO synthesis”.

In the case of LVLL [literature peptide docked to ACE], the C-domain affinity in data set [9] is -8.6 kcal/mol. The N-domain affinity in data set [10] was -7.5 kcal/mol.

For “TYLPVH [ACEi peptide from Ruditapes philippinarum]”, in data set [1], the IC50 is 1.37 µM and the “mode of ACE inhibition” value was “Noncompetitive”. The systolic blood pressure entry in data set [2] is “lower systolic blood pressure”. Moreover, in [3], the “NO production of HUVEC” value was “increasing the NO production” and the NO secretion entry is recorded as “promote NO secretion”. In data set [4], the ET-1 production entry is given as “reduced ET-1 production” and the ET-1 generation result was “significantly lessening ET-1 generation”.

As for YVVF [literature peptide docked to ACE], the C-domain affinity in data set [9] was -9.8 kcal/mol. Further, the N-domain affinity in [10] is -8.8 kcal/mol.
